Experiments:
[1] = target: Histamine H4 receptor (Rattus norvegicus) (UniProt Q91ZY1); assay: Antagonist activity at rat histamine H4 receptor assessed as decrease in intracellular calcium by FLIPR; type: functional, cell-based
[2] = target: Histamine H4 receptor (Rattus norvegicus) (UniProt Q91ZY1); assay: Antagonist activity at rat histamine H4 receptor assessed as decrease in intracellular calcium by FLIPR relative to histamine; type: functional, cell-based; design: concentration or dose not given beside the values
Histamine H4 receptor [3] = target: T1, Histamine H4 receptor (Homo sapiens, UniProt Q9H3N8); conditions: HEK293
Histamine H3 receptor [4] = target: Histamine H3 receptor (Rattus norvegicus, UniProt Q9QYN8); assay: Displacement of [3H]NAMH from rat histamine H3 receptor expressed in C6 cells after 1 hr by liquid scintillation counting; type: cell-based
Histamine H4 receptor [5] = target: Histamine H4 receptor (Rattus norvegicus, UniProt Q91ZY1); assay: Displacement of [3H]-histamine from rat histamine H4 receptor after 1 hr by liquid scintillation counting
Histamine H4 receptor [6] = target: T1, Histamine H4 receptor; assay: Displacement of [3H]-histamine from human histamine H4 receptor expressed in HEK293 cells after 1 hr by liquid scintillation counting; type: cell-based
Histamine H3 receptor [7] = target: Histamine H3 receptor (Homo sapiens, UniProt Q9Y5N1); assay: Displacement of [3H]NAMH from human histamine H3 receptor expressed in C6 cells after 1 hr by liquid scintillation counting; type: cell-based
[8] = Lipophilicity, log D at pH7.5; type: physicochemical; conditions: buffer, pH 7.5
Mus musculus = assay: Inhibition of clobenpropit-induced scratching in hind paw of ip dosed mouse administered 30 mins before; type: functional
[9] = target: T2, Histamine H4 receptor (Mus musculus) (UniProt Q91ZY2); assay: Antagonist activity at mouse histamine H4 receptor assessed as decrease in intracellular calcium by FLIPR; type: functional, cell-based
T2 sequence (whole entry): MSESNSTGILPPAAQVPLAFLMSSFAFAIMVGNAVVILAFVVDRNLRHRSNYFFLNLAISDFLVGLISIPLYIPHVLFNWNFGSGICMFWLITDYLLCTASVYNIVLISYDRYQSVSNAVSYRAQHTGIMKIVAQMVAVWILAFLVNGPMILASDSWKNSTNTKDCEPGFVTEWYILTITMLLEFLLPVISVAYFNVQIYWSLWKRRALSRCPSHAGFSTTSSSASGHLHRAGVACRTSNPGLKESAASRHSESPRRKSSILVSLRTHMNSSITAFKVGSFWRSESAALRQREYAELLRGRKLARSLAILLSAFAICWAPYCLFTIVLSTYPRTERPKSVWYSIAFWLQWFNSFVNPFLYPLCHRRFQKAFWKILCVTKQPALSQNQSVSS

Histamine H4 receptor [10] = target: T1, Histamine H4 receptor; assay: Agonist activity at human histamine H4 receptor expressed in HEK293 cells coexpressing Galphaqi5 assessed as increase in intracellular calcium by FLIPR relative to histamine

Sequence of Histamine H4 receptor (Rattus norvegicus) (Q91ZY1 whole entry): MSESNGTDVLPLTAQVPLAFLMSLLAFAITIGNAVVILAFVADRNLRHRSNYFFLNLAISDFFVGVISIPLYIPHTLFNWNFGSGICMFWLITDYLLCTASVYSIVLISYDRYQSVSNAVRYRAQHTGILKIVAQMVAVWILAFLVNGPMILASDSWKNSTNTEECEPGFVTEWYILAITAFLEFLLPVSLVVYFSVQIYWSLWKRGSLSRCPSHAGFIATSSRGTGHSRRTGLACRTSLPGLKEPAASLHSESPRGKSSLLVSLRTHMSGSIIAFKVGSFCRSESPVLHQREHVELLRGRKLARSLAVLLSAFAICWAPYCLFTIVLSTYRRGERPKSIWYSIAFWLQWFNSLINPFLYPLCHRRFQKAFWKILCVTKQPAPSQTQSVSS
Sequence of Histamine H4 receptor (Rattus norvegicus, UniProt Q91ZY1) (Q91ZY1 whole entry): as above
T1 sequence (Q9H3N8 whole entry): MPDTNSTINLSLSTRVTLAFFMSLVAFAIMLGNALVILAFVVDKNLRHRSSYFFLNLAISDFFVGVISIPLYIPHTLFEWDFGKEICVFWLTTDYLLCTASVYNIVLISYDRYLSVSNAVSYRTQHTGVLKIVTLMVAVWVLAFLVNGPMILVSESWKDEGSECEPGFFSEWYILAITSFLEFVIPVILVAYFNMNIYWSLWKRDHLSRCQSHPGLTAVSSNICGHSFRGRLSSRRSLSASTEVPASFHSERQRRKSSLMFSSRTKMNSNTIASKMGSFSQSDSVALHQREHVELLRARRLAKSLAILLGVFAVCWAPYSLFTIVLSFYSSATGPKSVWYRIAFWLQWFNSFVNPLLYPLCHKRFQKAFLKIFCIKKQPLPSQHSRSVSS
Sequence of Histamine H3 receptor (Homo sapiens, UniProt Q9Y5N1) (Q9Y5N1 whole entry): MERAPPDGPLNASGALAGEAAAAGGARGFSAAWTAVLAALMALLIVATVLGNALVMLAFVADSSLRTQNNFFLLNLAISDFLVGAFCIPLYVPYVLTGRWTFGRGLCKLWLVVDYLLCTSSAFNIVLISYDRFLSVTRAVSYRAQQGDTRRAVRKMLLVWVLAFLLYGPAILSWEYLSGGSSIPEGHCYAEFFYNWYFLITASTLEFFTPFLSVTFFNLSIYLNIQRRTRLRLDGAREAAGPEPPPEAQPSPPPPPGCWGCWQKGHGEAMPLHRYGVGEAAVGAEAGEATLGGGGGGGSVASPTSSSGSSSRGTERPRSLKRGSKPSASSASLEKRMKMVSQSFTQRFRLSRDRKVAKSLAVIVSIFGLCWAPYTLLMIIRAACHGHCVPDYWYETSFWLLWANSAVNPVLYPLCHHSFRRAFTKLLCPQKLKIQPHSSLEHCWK
Sequence of Histamine H3 receptor (Rattus norvegicus, UniProt Q9QYN8) (Q9QYN8 whole entry): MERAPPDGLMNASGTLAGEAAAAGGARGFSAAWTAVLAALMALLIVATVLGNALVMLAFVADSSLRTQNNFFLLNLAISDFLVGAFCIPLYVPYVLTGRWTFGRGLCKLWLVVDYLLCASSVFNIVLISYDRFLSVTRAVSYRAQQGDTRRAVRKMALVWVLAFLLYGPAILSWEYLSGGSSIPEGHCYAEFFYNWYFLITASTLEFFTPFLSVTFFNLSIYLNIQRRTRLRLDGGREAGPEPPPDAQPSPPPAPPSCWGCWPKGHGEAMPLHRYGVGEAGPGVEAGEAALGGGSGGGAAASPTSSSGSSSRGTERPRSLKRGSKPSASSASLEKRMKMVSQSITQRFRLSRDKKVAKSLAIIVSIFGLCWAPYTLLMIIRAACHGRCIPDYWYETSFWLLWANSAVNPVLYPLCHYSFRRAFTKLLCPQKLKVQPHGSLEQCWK

SMILES	pKb [1]	Activity [2]	pKb (Histamine H4 receptor [3])	other results
CN1CCC(Oc2nc(N)nc3c2CCCC32CCCC2)CC1	< 5.48	86%	7.7	
CN(C)CCOc1nc(N)nc2c1CCCC21CCCC1	< 6	88%	8.11	
CNC1CN(c2nc(N)nc3c2CCCC32CCCC2)C1	7.6	46%	8.34	Ki (Histamine H3 receptor [4]): 6.76 nM; Ki (Histamine H4 receptor [5]): 1.45 nM; Ki (Histamine H4 receptor [6]): 1.51 nM; Ki (Histamine H3 receptor [7]): 63.1 nM; logD [8]: 1.6
CNC1CN(c2nc(N)nc3c2CCCCC3c2ccccc2)C1 (stereo not given)				logD [8]: 2.05
Nc1nc(N2C[C@H]3CNC[C@H]3C2)c2c(n1)C1(CCCC1)CCC2 (stereo in doubt; 34)	5.65	48%	5.99	
Nc1nc2c(c(N3C[C@H]4CCCN[C@H]4C3)n1)CCCCC2c1ccccc1 (stereo not given in full)	8.24		7.88	ED50 (Mus musculus): 3 µmol/kg; pKb [9]: 7.9
Nc1nc(N2CCNCC2)c2c(n1)C1(CCCC1)CCC2	5.42	87%	8.56	logD [8]: 2.2
CN1CCC(Nc2nc(N)nc3c2CCCC32CCCC2)CC1	6.9	84%	7.66	
Nc1nc(N2CC[C@@H](N)C2)c2c(n1)C1(CCC2)Cc2ccccc2C1	6.09		6.3	
Nc1nc(N2CC(N)C2)c2c(n1)C1(CCCC1)CCC2	4.63	48%	< 4.16	
Nc1nc(N2CCC(N)(C(=O)O)CC2)c2c(n1)C1(CCCC1)CCC2	< 4.68		< 4.67	
Nc1nc(N2CC[C@@H](N)C2)c2c(n1)C1(CCCC1)CCC2	6.76	71%	8.57	Ki (Histamine H3 receptor [4]): 79.4 nM; ED50 (Mus musculus): 1 µmol/kg; pKb [9]: 7.82; Ki (Histamine H3 receptor [7]): 295 nM
COC(=O)C1(N)CCN(c2nc(N)nc3c2CCCC32CCCC2)CC1	4.77	52%	4.9	
Nc1nc2c(c(N3CC4CCCNC4C3)n1)CCCCC2c1ccccc1 (stereo not given)			7.59	Ki (Histamine H4 receptor [5]): 2.69 nM; Ki (Histamine H4 receptor [6]): 7.08 nM
Nc1nc2c(c(N3CCNCC3)n1)CCCCC2c1ccccc1 (stereo not given)	7.26		7.24	Ki (Histamine H3 receptor [4]): 661 nM; ED50 (Mus musculus): 10 µmol/kg; pKb [9]: 7.34; Ki (Histamine H3 receptor [7]): 2240 nM; logD [8]: 1.73
CN[C@@H]1CCN(c2nc(N)nc3c2CCCC(c2ccccc2)C3)C1 (stereo not given in full)				Ki (Histamine H3 receptor [4]): 105 nM; Ki (Histamine H3 receptor [7]): 224 nM
Nc1nc(N2C[C@H]3CNC[C@H]3C2)c2c(n1)C1(CCCC1)CCC2 (stereo in doubt; 33)	5.13	53%	5.96	
Nc1nc(N2CC[C@@H](N)C2)c2c(n1)C1(CCCCC1)CCC2	< 4.96	84%	7.33	
Nc1nc(N2CCCNCC2)c2c(n1)C1(CCCC1)CCC2	< 5.32	77%	8.01	
Nc1nc(N2CCNCC2)c2c(n1)C1(CCCCC1)CCC2	< 4.86	105%	7.32	
Nc1nc(N2CC[C@H](N)C2)c2c(n1)C1(CCCC1)CCC2	6.87	63%	7.28	
Nc1nc(N2CCNCC2)c2c(n1)C1(CCC2)Cc2ccccc2C1	4.86	135%	4.57	Activity (Histamine H4 receptor [10]): 49%
Nc1nc(N2C[C@H]3CCCN[C@H]3C2)c2c(n1)C1(CCCC1)CCC2	< 6.6	35%	8.07	
Nc1nc(N2C[C@H]3CCCN[C@H]3C2)c2c(n1)C1(CCCCC1)CCC2	5.81	50%	7	
CN[C@@H]1CCN(c2nc(N)nc3c2CCCC32CCCC2)C1	7.48	58%	8.54	Ki (Histamine H3 receptor [4]): 72.4 nM; Ki (Histamine H4 receptor [5]): 2.63 nM; Ki (Histamine H4 receptor [6]): 2 nM; Ki (Histamine H3 receptor [7]): 105 nM
